Measurements published in article PMC3692431, “Anticonvulsant Activity of B2, an Adenosine Analog, on Chemical Convulsant-Induced Seizures” (PLoS ONE, 2013).

How the values were obtained:
PTZ-induced seizures [1] = test: PTZ-induced seizures with adenosine receptor antagonist pretreatment; type: in vivo, mice; details: PTZ 85 mg/kg
Procedure: (§1) KA was dissolved in saline and the pH was adjusted to neutrality. The final concentration of KA was 0.7 µg/µl, and the convulsant dose was 1 µl (i.c.v.). […] The selective adenosine receptor antagonist DPCPX or SCH58261 was administered (i.p.) 5 min before administration of B2 or vehicle.
Twenty min later, mice were admdinistered with PTZ (85 mg/kg).

[2] = tested on: strychnine-induced seizures; test: Strychnine-induced seizures in mice; type: in vivo; details: 80 mg/kg, positive control; strychnine 1.5 mg/kg i.p.
Procedure: as §1
(§2) Mice were injected with B2 (1.25, 5, 20 mg/kg), carbamazepine (80 mg/kg) or vehicle 20 min before administration of strychnine (1.5 mg/kg) or 4-AP (13 mg/kg). […] The time of latency to seizure onset and mortality rate were recorded.

4-AP-induced seizures = 4-AP-induced seizures in mice; type: in vivo; details: 80 mg/kg, positive control, 4-AP 13 mg/kg
Procedure: as §1, §2

PTZ-induced seizures [3] = test: PTZ-induced seizures in mice; type: in vivo; details: 10 mg/kg i.p.; PTZ 85 mg/kg s.c.; P<0.001
Procedure: The latency of seizure onset, number of seizures, and mortality rate was recorded for the picrotoxin-injected mice. For the PTZ-injected mice, we recorded the latency of seizure onset, number of seizures, and presence of clonic seizures.

KA-induced seizures = KA-induced seizures in mice; type: in vivo; details: 10 mg/kg, positive control, KA 0.7 µg i.c.v.
Procedure: as §1
The left lateral ventricle (0.6 mm posterior, 1.9 mm lateral, and 2.1 mm ventral to bregma) was cannulated as described. After a 7-day recovery period, mice were injected with either B2 (1.25, 5, 20 mg/kg) or vehicle. Twenty minutes later, an intracerebroventricular injection of KA (0.7 µg/µl, 1 µl) was administered without anesthesia. The animals were then observed for a minimum of 60 min. Seizure severity was determined according to the scoring system described by Racine. At the end of the experiment, cannulae placement was verified.

Which results are given for `CCCn1c(=O)c2[nH]c(C3CCCC3)nc2n(CCC)c1=O` [DPCPX, 8-Cyclopentyl-1,3-dipropylxanthine]?
effect on onset time of seizure, antagonist alone (PTZ-induced seizures [1]; DPCPX 0.3125–1.25 mg/kg i.p. alone): did not affect; effect on the delaying effect of B2 on onset times of seizure (PTZ-induced seizures [1]; DPCPX pretreatment 5 min before B2 5 mg/kg, P<0.05): significantly blocked

What does the source list for `NC(=O)N1c2ccccc2C=Cc2ccccc21` [Carbamazepine, carbamazepine, reference compound]?
protection against strychnine-induced seizures [2]: complete protection; effect on latency to seizure onset (4-AP-induced seizures; P<0.001): significantly prolonged; effect on mortality rate (4-AP-induced seizures; P<0.05): reduced the mortality rate

Which results are given for `Nc1nc2c(cnn2CCc2ccccc2)c2nc(-c3ccco3)nn12` [SCH58261, 5-amino-7-(β-phenylethyl)-2-(2-furyl)-pyrazolo-[4,3-e]-1,2,4-triazolo[1,5-c]-pyrimidine]?
effect on onset time of seizure, antagonist alone (PTZ-induced seizures [1]; SCH58261 0.08–1.25 mg/kg i.p. alone): did not affect; effect on the delaying effect of B2 on seizure onset time (PTZ-induced seizures [1]; SCH58261 pretreatment 5 min before B2 5 mg/kg): did not affect the delaying effect

How did the “protection against PTZ-induced seizures” value (PTZ-induced seizures [3]) turn out when `CN1C(=O)CN=C(c2ccccc2)c2cc(Cl)ccc21` [Diazepam, diazepam, reference compound] was run?
The value was “completely protected”.

And the “protection against KA-induced seizures” value (KA-induced seizures)?
The value was “significant protection”.
